Experimental data as given in patent US6828338B2, “Substituted polycyclic aryl and heteroaryl pyridines useful for selective inhibition of the coagulation cascade” (Pharmacia Corporation, priority 2000, dated 2004).

Biological target: T1, Human factor Xa (Homo sapiens, UniProt P00742)
T1 construct: leads from XII to XIIa to XIa to IXa and to the conversion of X to Xa; purchased Enzyme Research Laboratories, South Bend Ind
Assay: Xa Assay
Format: biochemical
Protocol: Human factor Xa (0.3 nM) and 0.15 mM N-a-Benzyloxycarbonyl-D-arginyl-L-glycyl-L-arginine-p-nitroaniline-dihydrochloride (S-2765) are added to a 96-well assay plate containing either inhibitor or buffer (50 mM Tris-HCl, pH 8.0, 100 mM NaCl, 0.1% BSA). The reaction, in a final volume of 100 ul is measured immediately at 405 nm to determine background absorbance. The plate is incubated at room temperature for 60 min, at which time the rate of hydrolysis of the substrate is measured by monitoring the reaction at 405 nm for the release of p-nitroaniline. Percent inhibition of Xa activity is calculated from OD405 nm value from the experimental and control sample.
Recombinant soluble TF, consisting of amino acids 1-219 of the mature protein sequence was expressed in E. coli and purified using a Mono Q Sepharose FPLC. Recombinant human VIIa was purchased from American Diagnostica, Greenwich Conn. and chromogenic substrate N-Methylsulfonyl-D-phe-gly-arg-p-nitroaniline was prepared by American Peptide Company, Inc., Sunnyvale, Calif. Factor Xa was obtained from Enzyme Research Laboratories, South Bend Ind., thrombin from Calbiochem, La Jolla, Calif., and trypsin and L-BAPNA from Sigma, St. Louis Mo. The chromogenic substrates S-2765 and S-2238 were purchased from Chromogenix, Sweden.

T1 sequence (P00742 235-488 limits assumed): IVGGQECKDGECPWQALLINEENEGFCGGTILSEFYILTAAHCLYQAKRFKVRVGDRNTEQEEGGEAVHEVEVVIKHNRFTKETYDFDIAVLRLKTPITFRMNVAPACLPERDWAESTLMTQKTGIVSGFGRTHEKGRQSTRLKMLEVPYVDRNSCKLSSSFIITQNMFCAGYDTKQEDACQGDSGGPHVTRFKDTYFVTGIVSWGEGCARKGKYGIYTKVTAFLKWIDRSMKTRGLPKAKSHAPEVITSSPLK
T1 sequence (P00742 41-179 limits assumed): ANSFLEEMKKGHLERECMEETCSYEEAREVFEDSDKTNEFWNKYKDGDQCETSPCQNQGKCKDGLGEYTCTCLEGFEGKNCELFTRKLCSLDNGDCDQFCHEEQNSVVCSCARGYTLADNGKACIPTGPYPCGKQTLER

Row | IC50 [µM] | Compound
1 | > 100 | CC(C)Nc1ccc(-c2cc(N)cc(N)c2)c(CC(=O)NCc2ccc(C(=N)N)cc2)[n+]1[O-] [Example 7]
2 | > 100 | CC(C)Nc1ccc(/C=C/c2ccccc2)c(CC(=O)NCc2ccc(C(=N)N)cc2)[n+]1[O-] [Example 12]
